Here are results for 2 compounds from ChEMBL document CHEMBL3774317, “Design and synthesis of novel tamoxifen analogues that avoid CYP2D6 metabolism” (Eur J Med Chem, 2016).

In data set [1] the test system is T47D. The data set can be described thus: Cytotoxicity against human T47D cells assessed as cell growth at 0.5 uM after 48 hrs by SRB assay. Type of data set: functional. As to conditions: read-out: Activity. (Sulforhodamine B stains cellular protein and so reports cell mass.)
Data set [2] is described as follows: Cytotoxicity against human HOP62 cells assessed as cell growth at 50 nM after 48 hrs by SRB assay. As to conditions: HOP-62, 48 h, read-out: Activity. Format: functional.
A short description of data set [3]: Cytotoxicity against human Caki1 cells assessed as cell growth at 50 nM after 48 hrs by SRB assay. Type of data set: functional. As to conditions: CAKI-1, 48 h, read-out: Activity.
The test system of the next data set is NCI-H322M. The data set can be described thus: Cytotoxicity against human NCI-H322M cells assessed as cell growth at 5 nM after 48 hrs by SRB assay. Type of data set: functional. As to conditions: read-out: Activity.
A further data set deals with MCF7. Nature of the data set: Cytotoxicity against human MCF7 cells assessed as cell growth at 50 nM after 48 hrs by SRB assay. Type of data set: functional. To be noted: MCF7, 48 h, read-out: Activity.
Data set [4] in a line: Cytotoxicity against human BT549 cells assessed as cell growth at 5 uM after 48 hrs by SRB assay. To be noted: BT-549, 48 h, read-out: Activity. Type of data set: functional.
Data set [5] in a line: Cytotoxicity against human SF539 cells assessed as cell growth at 0.5 uM after 48 hrs by SRB assay. Type of data set: functional. As to conditions: SF-539, 48 h, read-out: Activity.
The subject of another data set is NCI-H522. The data set can be described thus: Cytotoxicity against human NCI-H522 cells assessed as cell growth at 50 nM after 48 hrs by SRB assay. As to conditions: NCI-H522, 48 h, read-out: Activity. Type of data set: functional.
The nature of data set [6]: Cytotoxicity against human SF268 cells assessed as cell growth at 5 uM after 48 hrs by SRB assay. Type of data set: functional. To be noted: SF-268, 48 h, read-out: Activity.
The nature of data set [7]: Cytotoxicity against human SW620 cells assessed as cell growth at 5 uM after 48 hrs by SRB assay. To be noted: SW-620, 48 h, read-out: Activity. Type of data set: functional.
The subject of the next data set is A549. The data set can be described thus: Cytotoxicity against human A549 cells assessed as cell growth at 50 uM after 48 hrs by SRB assay. Type of data set: functional. To be noted: A549, 48 h, read-out: Activity.
The nature of data set [8]: Metabolic stability in human hepatocytes assessed as remaining parent compound level at 10 uM measured immediately after compound addition by LC/MS analysis. Type of data set: ADME, cell-based, Hepatocyte. As to conditions: read-out: Drug metabolism.
Data set [9] deals with K562. The data set can be described thus: Cytotoxicity against human K562 cells assessed as cell growth at 50 nM after 48 hrs by SRB assay. Format: functional. To be noted: K562, 48 h, read-out: Activity.
For data set [10], the system named is SN12C. The data set can be described thus: Cytotoxicity against human SN12C cells assessed as cell growth at 5 uM after 48 hrs by SRB assay. Type of data set: functional. To be noted: read-out: Activity.
A short description of data set [11]: Cytotoxicity against human SNB75 cells assessed as cell growth at 5 uM after 48 hrs by SRB assay. Type of data set: functional. To be noted: SNB-75, 48 h, read-out: Activity.
The nature of data set [12]: Cytotoxicity against human HL-60(TB) cells assessed as cell growth at 0.5 uM after 48 hrs by SRB assay. Type of data set: functional. To be noted: HL-60, 48 h, read-out: Activity.
For another data set, the system named is MDA-MB-468. Nature of the data set: Cytotoxicity against human MDA-MB-468 cells assessed as cell growth at 5 nM after 48 hrs by SRB assay. To be noted: MDA-MB-468, 48 h, read-out: Activity. Type of data set: functional.
The subject of another data set is MDA-MB-435. Nature of the data set: Cytotoxicity against human MDA-MB-435 cells assessed as cell growth at 50 uM after 48 hrs by SRB assay. Format: functional. As to conditions: MDA-MB-435, 48 h, read-out: Activity.
Data set [13] in a line: Cytotoxicity against human HCT15 cells assessed as cell growth at 5 uM after 48 hrs by SRB assay. Type of data set: functional. As to conditions: HCT-15, 48 h, read-out: Activity.
The subject of data set [14] is K562. The data set can be described thus: Cytotoxicity against human K562 cells assessed as cell growth at 5 uM after 48 hrs by SRB assay. As to conditions: K562, 48 h, read-out: Activity. Format: functional.
The test system of data set [15] is SK-MEL-2. Nature of the data set: Cytotoxicity against human SK-MEL-2 cells assessed as cell growth at 0.5 uM after 48 hrs by SRB assay. Type of data set: functional. To be noted: SK-MEL-2, 48 h, read-out: Activity.
In data set [16] the test system is CCRF-CEM. The data set can be described thus: Cytotoxicity against human CCRF-CEM cells assessed as cell growth at 10^-8 M after 48 hrs by SRB assay. Type of data set: functional. To be noted: read-out: Activity.
A further data set concerns HT-29. The data set can be described thus: Cytotoxicity against human HT-29 cells assessed as cell growth at 10^-4 M after 48 hrs by SRB assay. Format: functional. As to conditions: HT-29, 48 h, read-out: Activity.
Data set [17] in a line: Cytotoxicity against human HL-60(TB) cells assessed as cell growth at 10^-5 M after 48 hrs by SRB assay. Format: functional. To be noted: HL-60, 48 h, read-out: Activity.
A short description of data set [18]: Cytotoxicity against human SF539 cells assessed as cell growth at 10^-4 M after 48 hrs by SRB assay. Format: functional. To be noted: SF-539, 48 h, read-out: Activity.
Data set [19] can be described thus: Cytotoxicity against human SW620 cells assessed as cell growth at 10^-4 M after 48 hrs by SRB assay. Format: functional. To be noted: SW-620, 48 h, read-out: Activity.
The subject of data set [20] is T47D. Nature of the data set: Cytotoxicity against human T47D cells assessed as cell growth at 10^-8 M after 48 hrs by SRB assay. Type of data set: functional. To be noted: read-out: Activity.
For data set [21], the system named is T47D. The data set can be described thus: Cytotoxicity against human T47D cells assessed as cell growth at 10^-7 M after 48 hrs by SRB assay. Type of data set: functional. To be noted: read-out: Activity.
For the next data set, the system named is SK-MEL-5. The data set can be described thus: Cytotoxicity against human SK-MEL-5 cells assessed as cell growth at 10^-8 M after 48 hrs by SRB assay. Format: functional. To be noted: SK-MEL-5, 48 h, read-out: Activity.
Data set [22] can be described thus: Cytotoxicity against human TK10 cells assessed as cell growth at 10^-8 M after 48 hrs by SRB assay. To be noted: TK-10, 48 h, read-out: Activity. Type of data set: functional.
Data set [23] is described as follows: Cytotoxicity against human RPMI8226 cells assessed as cell growth at 10^-8 M after 48 hrs by SRB assay. Type of data set: functional. To be noted: RPMI-8226, 48 h, read-out: Activity.
The nature of data set [24]: Cytotoxicity against human UO31 cells assessed as cell growth at 10^-8 M after 48 hrs by SRB assay. Format: functional. As to conditions: UO-31, 48 h, read-out: Activity.
Data set [25] in a line: Cytotoxicity against human OVCAR4 cells assessed as cell growth at 10^-8 M after 48 hrs by SRB assay. Type of data set: functional. To be noted: OVCAR-4, 48 h, read-out: Activity.
Data set [26] relates to SK-MEL-2. The data set can be described thus: Cytotoxicity against human SK-MEL-2 cells assessed as cell growth at 10^-7 M after 48 hrs by SRB assay. Format: functional. As to conditions: SK-MEL-2, 48 h, read-out: Activity.
Data set [27] concerns SN12C. The data set can be described thus: Cytotoxicity against human SN12C cells assessed as cell growth at 10^-5 M after 48 hrs by SRB assay. Type of data set: functional. As to conditions: read-out: Activity.
The nature of data set [28]: Cytotoxicity against human Caki1 cells assessed as cell growth at 10^-5 M after 48 hrs by SRB assay. Format: functional. As to conditions: CAKI-1, 48 h, read-out: Activity.
The subject of the next data set is SK-MEL-28. Nature of the data set: Cytotoxicity against human SK-MEL-28 cells assessed as cell growth at 10^-5 M after 48 hrs by SRB assay. Type of data set: functional. As to conditions: SK-MEL-28, 48 h, read-out: Activity.
The test system of the next data set is KM12. Nature of the data set: Cytotoxicity against human KM12 cells assessed as cell growth at 10^-8 M after 48 hrs by SRB assay. Type of data set: functional. As to conditions: KM12, 48 h, read-out: Activity.
A further data set relates to NCI-H23. Nature of the data set: Cytotoxicity against human NCI-H23 cells assessed as cell growth at 10^-6 M after 48 hrs by SRB assay. As to conditions: NCI-H23, 48 h, read-out: Activity. Format: functional.
In a further data set the test system is NCI-H226. Nature of the data set: Cytotoxicity against human NCI-H226 cells assessed as cell growth at 10^-5 M after 48 hrs by SRB assay. Type of data set: functional. As to conditions: NCI-H226, 48 h, read-out: Activity.
Data set [29] relates to CCRF-CEM. The data set can be described thus: Cytotoxicity against human CCRF-CEM cells assessed as cell growth at 10^-7 M after 48 hrs by SRB assay. Format: functional. As to conditions: read-out: Activity.

Turning to `CCCCCCCCCC(=O)Oc1ccc(/C(=C(/C)c2ccccc2)c2ccc(OCCN3CCCC3)cc2)cc1`, the growth at 0.5 µM in the data set on T47D [1] worked out at 46%; in data set [5] it was 72%; in [12], 75%; in the data set with SK-MEL-2 [15], 99%. Moreover, the growth at 0.05 µM is 95% in data set [2]; 82% in data set [3]; 41% in the data set with MCF7; 98% with NCI-H522; 95% in the data set with K562 [9]. Moreover, the growth at 0.005 µM is 94% in the data set on NCI-H322M and 96% in the data set with MDA-MB-468. Moreover, the growth at 5 µM is 85% in data set [4]; 83% in [6]; 95% in [7]; 95% in the data set on SN12C [10]; 69% in data set [11]; 72% in data set [13]. Further, in the data set on K562 [14], the growth at 5 µM stood at 74%. Besides, the figures for the growth at 50 µM in the data set on A549 and with MDA-MB-435 were -82% and -100%, respectively. For the same compound, the remaining at 0 h, 10 µM in [8] was 29%.
As to `C/C(=C(/c1ccc(O)cc1)c1ccc(OCCN2CCCC2)cc1)c1ccccc1`, the growth at 0.01 µM with CCRF-CEM [16] came to 110%; in the data set on T47D [20] it was 62%; with SK-MEL-5 it was 101%; in data set [22] it was 96%; in [23], 103%; in data set [24] it was 93%. Besides, the growth at 0.01 µM in [25] turned out to be 90%; in the data set with KM12 it was 102%. Besides, the growth at 100 µM in the data set on HT-29 was -91%; in data set [18], -86%; in data set [19], -92%. Further, the growth at 10 µM in data set [17] was -39%; with SN12C [27] it was 48%; in [28], 17%; in the data set on SK-MEL-28, -74%; in the data set with NCI-H226, 56%. Besides, the growth at 0.1 µM with T47D [21] was 63%; in the data set on SK-MEL-2 [26], 103%; in the data set on CCRF-CEM [29], 113%. Also, in the data set on NCI-H23, the growth at 1 µM worked out at 86%.
